Measurements taken from ChEMBL document CHEMBL3875216, “Synthesis of antimicrobial glucosamides as bacterial quorum sensing mechanism inhibitors” (Bioorg Med Chem, 2017).

Columns and labels:
Pseudomonas aeruginosa [1] = assay: Inhibition of LasR-dependent quorum sensing activity in Pseudomonas aeruginosa MH602 harboring GFP-fused […] LasB promoter assessed as inhibition of 3-oxo-dodecanoyl HSL-induced GFP expression at 2 mM measured after 8 hrs by fluorescence assay relative to control
Pseudomonas aeruginosa [2] = assay: Inhibition of LasR-dependent quorum sensing activity in Pseudomonas aeruginosa MH602 harboring GFP-fused […] LasB promoter assessed as inhibition of 3-oxo-dodecanoyl HSL-induced GFP expression at 2 mM measured after 24 hrs by fluorescence assay relative to control
Pseudomonas aeruginosa [3] = assay: Inhibition of LasR-dependent quorum sensing activity in Pseudomonas aeruginosa MH602 harboring GFP-fused […] LasB promoter assessed as inhibition of 3-oxo-dodecanoyl HSL-induced GFP expression at 1 mM measured after 8 hrs by fluorescence assay relative to control
Pseudomonas aeruginosa [4] = assay: Inhibition of LasR-dependent quorum sensing activity in Pseudomonas aeruginosa MH602 harboring GFP-fused […] LasB promoter assessed as inhibition of 3-oxo-dodecanoyl HSL-induced GFP expression at 500 uM measured after 8 hrs by fluorescence assay relative to control
Escherichia coli [5] = assay: Inhibition of LuxR-dependent quorum sensing activity in Escherichia coli MT102 harboring pJBA132 assessed as inhibition of OHHL-induced GFP expression at 2 mM measured after 8 hrs by fluorescence assay relative to control
Escherichia coli [6] = assay: Inhibition of LuxR-dependent quorum sensing activity in Escherichia coli MT102 harboring pJBA132 assessed as inhibition of OHHL-induced GFP expression at 2 mM measured after 24 hrs by fluorescence assay relative to control
Escherichia coli [7] = assay: Inhibition of LuxR-dependent quorum sensing activity in Escherichia coli MT102 harboring pJBA132 assessed as inhibition of OHHL-induced GFP expression at 1 mM measured after 24 hrs by fluorescence assay relative to control
Pseudomonas aeruginosa [8] = assay: Growth inhibition of Pseudomonas aeruginosa MH602 at 2 mM after 8 hrs relative to control; conditions: MH602, 8 h, read-out: GI
Pseudomonas aeruginosa [9] = assay: Growth inhibition of Pseudomonas aeruginosa MH602 at 2 mM after 24 hrs relative to control; conditions: MH602, 24 h, read-out: GI
Pseudomonas aeruginosa [10] = assay: Growth inhibition of Pseudomonas aeruginosa MH602 at 1 mM after 8 hrs relative to control; conditions: MH602, 8 h, read-out: GI
Pseudomonas aeruginosa [11] = assay: Growth inhibition of Pseudomonas aeruginosa MH602 at 1 mM after 24 hrs relative to control; conditions: MH602, 24 h, read-out: GI
Pseudomonas aeruginosa [12] = assay: Growth inhibition of Pseudomonas aeruginosa MH602 at 500 uM after 8 hrs relative to control; conditions: MH602, 8 h, read-out: GI
Pseudomonas aeruginosa [13] = assay: Growth inhibition of Pseudomonas aeruginosa MH602 at 500 uM after 24 hrs relative to control; conditions: MH602, 24 h, read-out: GI
Escherichia coli [14] = assay: Growth inhibition of Escherichia coli MT102 at 2 mM after 8 hrs relative to control; conditions: MT102, 8 h, read-out: GI
Escherichia coli [15] = assay: Growth inhibition of Escherichia coli MT102 at 2 mM after 24 hrs relative to control; conditions: MT102, 24 h, read-out: GI
Escherichia coli [16] = assay: Growth inhibition of Escherichia coli MT102 at 1 mM after 8 hrs relative to control; conditions: MT102, 8 h, read-out: GI
Escherichia coli [17] = assay: Growth inhibition of Escherichia coli MT102 at 1 mM after 24 hrs relative to control; conditions: MT102, 24 h, read-out: GI
Escherichia coli [18] = assay: Growth inhibition of Escherichia coli MT102 at 500 uM after 8 hrs relative to control; conditions: MT102, 8 h, read-out: GI
Escherichia coli [19] = assay: Growth inhibition of Escherichia coli MT102 at 500 uM after 24 hrs relative to control; conditions: MT102, 24 h, read-out: GI
[20] = tested on: Pseudomonas aeruginosa PA14; assay: Inhibition of quorum sensing-regulated pyocyanin production in Pseudomonas aeruginosa PA14 at 2 mM after 24 hrs relative to control
Pseudomonas aeruginosa [21] = assay: Growth inhibition of Pseudomonas aeruginosa PA14 at 2 mM after 24 hrs relative to control; conditions: 2000 µM
[22] = tested on: Pseudomonas aeruginosa PA14; assay: Inhibition of quorum sensing-regulated biofilm formation in Pseudomonas aeruginosa PA14 at 2 mM after overnight incubation by crystal violet staining based assay relative to control
Escherichia coli [23] = assay: Inhibition of LuxR-dependent quorum sensing activity in Escherichia coli MT102 harboring pJBA132 assessed as inhibition of OHHL-induced GFP expression at 1 mM measured after 8 hrs by fluorescence assay relative to control
Escherichia coli [24] = assay: Inhibition of LuxR-dependent quorum sensing activity in Escherichia coli MT102 harboring pJBA132 assessed as inhibition of OHHL-induced GFP expression at 500 uM measured after 8 hrs by fluorescence assay relative to control

Structure (SMILES) | inhibition (Pseudomonas aeruginosa [1]) [%] | inhibition (Pseudomonas aeruginosa [3]) [%] | inhibition (Pseudomonas aeruginosa [4]) [%] | inhibition (Escherichia coli [5]) [%] | inhibition (Escherichia coli [6]) [%] | inhibition (Escherichia coli [7]) [%] | inhibition at 2000 µM (Pseudomonas aeruginosa [8]) [%] | inhibition at 2000 µM (Pseudomonas aeruginosa [9]) [%] | inhibition at 1000 µM (Pseudomonas aeruginosa [10]) [%] | inhibition at 1000 µM (Pseudomonas aeruginosa [11]) [%] | inhibition at 500 µM (Pseudomonas aeruginosa [12]) [%] | inhibition at 500 µM (Pseudomonas aeruginosa [13]) [%] | inhibition at 2000 µM (Escherichia coli [14]) [%] | inhibition at 2000 µM (Escherichia coli [15]) [%] | inhibition at 1000 µM (Escherichia coli [16]) [%] | inhibition at 1000 µM (Escherichia coli [17]) [%] | inhibition at 500 µM (Escherichia coli [18]) [%] | inhibition at 500 µM (Escherichia coli [19]) [%] | growth inhibition (GI) (Pseudomonas aeruginosa [21]) | inhibition (Escherichia coli [23]) [%] | also measured
CCCCCCCC(=O)N[C@@H]1[C@@H](O)[C@H](O)[C@@H](CO)O[C@H]1O | 23.2 | 12.2 | 17.5 | 16.7 | 45.7 | 48.2 | 21.3 | 65.4 | 0 | 0 | 3.4 | 0 | 30.7 | 0 | 10.6 | 4.4 | 0 | 0 | Non-Toxic | – | inhibition (Pseudomonas aeruginosa [2]): 21.3%; inhibition [20]: 11.7%; inhibition [22]: 14%
CCCCCC(=O)N[C@@H]1[C@@H](O)[C@H](O)[C@@H](CO)O[C@H]1O | 10 | 13.1 | 12.9 | – | 42.7 | 15.8 | 19 | 3.1 | 10.5 | 19.2 | 7.1 | 0 | 24.6 | 0 | 11.7 | 8.4 | 0 | 0 | Non-Toxic | 10.7 | inhibition [22]: 9%
CC(=O)OC[C@H]1O[C@@H](OC(C)=O)[C@H](NC(=O)CCCc2ccccc2)[C@@H](OC(C)=O)[C@@H]1OC(C)=O | 5.2 | 4.9 | 7.3 | – | 43.8 | 21.1 | 37.2 | 3.3 | 30.9 | 25.9 | 7.3 | 0 | 93.2 | 26.7 | 64.7 | 19.7 | 15.1 | 5.2 | Non-Toxic | 18.1 | –
CC(=O)OC[C@H]1O[C@@H](OC(C)=O)[C@H](NC(=O)CCc2c[nH]c3ccccc23)[C@@H](OC(C)=O)[C@@H]1OC(C)=O | 53.8 | 32.6 | 9.3 | 65.5 | 28.5 | – | 0 | 0 | 0 | 3.5 | 2.3 | 3.5 | 0 | 0 | 0 | 0 | 0 | 2.6 | Non-Toxic | 2.3 | inhibition (Pseudomonas aeruginosa [2]): 7.4%; inhibition (Escherichia coli [24]): 13.5%
CCCCCCCCCCCC(=O)N[C@@H]1[C@@H](O)[C@H](O)[C@@H](CO)O[C@H]1O | – | – | 12.6 | – | – | – | 32 | 28.7 | 30.9 | 37.2 | 25.5 | 19.4 | 28.6 | 11.7 | 46.2 | 14.3 | 23.2 | 14.3 | Non-Toxic | 4.6 | inhibition [20]: 20.7%; inhibition [22]: 2.3%
CCCCCCCCCCCC(=O)N[C@H]1[C@H](OC(C)=O)O[C@H](COC(C)=O)[C@@H](OC(C)=O)[C@@H]1OC(C)=O | – | – | 12.8 | 1.8 | 59.7 | 31.5 | 1.2 | 0 | 0 | 0 | 0 | 0 | 21.8 | 15 | 0 | 13.4 | 0 | 12.2 | Non-Toxic | – | inhibition (Pseudomonas aeruginosa [2]): 35.3%; inhibition [20]: 19.7%; inhibition [22]: 3.5%
CCCCCCCC(=O)N[C@H]1[C@H](OC(C)=O)O[C@H](COC(C)=O)[C@@H](OC(C)=O)[C@@H]1OC(C)=O | – | 8.5 | 14.4 | 36 | 14 | – | 33.1 | 2.8 | 2.5 | 0 | 2.7 | 0 | 14.9 | 21.4 | 0 | 9.6 | 23.7 | 6.2 | Non-Toxic | 2.3 | inhibition (Pseudomonas aeruginosa [2]): 26.1%; inhibition [22]: 21.1%
CC(=O)OC[C@H]1O[C@@H](OC(C)=O)[C@H](NC(=O)CC(=O)CCCc2ccccc2)[C@@H](OC(C)=O)[C@@H]1OC(C)=O | 24.4 | – | 6.5 | 12.8 | 34.2 | 43.4 | 24.8 | 0 | 11.7 | 19.6 | 0 | 0 | 21.8 | 5.1 | 2.6 | 4.9 | 3.3 | 0 | Non-Toxic | 26 | –
CCCCCCCCCC(=O)N[C@@H]1[C@@H](O)[C@H](O)[C@@H](CO)O[C@H]1O | 11.5 | 15.6 | 15.7 | – | 23.3 | 8.5 | 17.6 | 0 | 20.4 | 30.2 | 7.8 | 16.4 | 38.2 | 12.3 | 45 | 20 | 0 | 15.3 | Non-Toxic | 16.3 | inhibition [20]: 13.3%
CCCC(=O)CC(=O)N[C@H]1[C@H](OC(C)=O)O[C@H](COC(C)=O)[C@@H](OC(C)=O)[C@@H]1OC(C)=O | 64.5 | 59.6 | 5.3 | 88.1 | 40.9 | 20.7 | 74.9 | 4.6 | 66.8 | 25.9 | 5.7 | 6.3 | 50.3 | 65.1 | 44.1 | 49.2 | 22.2 | 12.7 | Non-Toxic | 85.4 | inhibition [20]: 3.5%; inhibition [22]: 38.1%
